Experimental findings from patent publication US20060293395A1, “Methods for treating a mammal before, during and after cardiac arrest” (priority 2004, published 2006) are described below.

Entries after “also recorded” stand apart in the source; their conditions may differ.

Assay [1] deals with Male Sprague-Dawley rats. Briefly: Example 1: post-resuscitation myocardial dysfunction after VF cardiac arrest, drug infusion for 240 min post-resuscitation.
The test system of assay [2] is Male Sprague-Dawley rats. Briefly: Example 2: dobutamine vs levosimendan for post-resuscitation myocardial failure, 8 min untreated VF + 6 min precordial compression. Type of assay: in vivo, rat. Here is the method: The animals were anesthetized following intraperitoneal injection of 45 mg kg^−1 pentobarbital. […] No anesthetic agent was administrated during the 30 minute interval prior to inducing cardiac arrest.
Pressures were measured with a high sensitivity pressure transducer (Model 42584-01; Abbott Critical Care System, North Chicago, Ill.). The optimally damped frequency response of the system was 22 Hz. […] Guided by pressure monitoring, the catheter was slowly withdrawn into the right atrium. Right atrial pressure was measured with reference to the mid-chest with another high sensitivity pressure transducer (Abbott model 42584-01). This catheter also served as an injection site for the thermal tracer. A 4 F polyethylene catheter (model C-PMS401J; Cook Critical Care, Bloomington, Ind.) was advanced through the right external jugular vein into the right atrium. A precurved guide wire supplied with the catheter was then advanced through the catheter into the right ventricle until an endocardial electrogram was observed. Another 23-gauge polyethylene catheter (PE 50) was advanced through the left femoral artery into the abdominal aorta for measurement of aortic pressure with the same Abbott high sensitivity transducer and also for sampling arterial blood. […] The thermocouple provided for measurements of blood temperature and thermodilution cardiac output. […] An additional PE 50 catheter was advanced into right femoral vein for drug infusion. EKG lead II was continuously recorded.
Experimental Procedure: A total of 15 animals were investigated. The investigators were blinded to the intervention until immediately prior to inducing VF, at which time the principal investigator opened a sealed envelope for assignment to one of three groups: (1) levosimendan (2) dobutamine or (3) saline placebo. This allowed time for preparation of a fresh dilution of the selected drug. […] Current flow was continued for 3 minutes to prevent spontaneous defibrillation as previously described (Von Planta I, Weil MH. Cardiopulmonary resuscitation in the rat. J Appl Physiol. 1988;65(6):2641-2647). Ventilation was discontinued after onset of VF. Precordial compression was begun with a pneumatically driven mechanical chest compressor after 8 minutes of untreated VF and continued for 6 minutes. These methods have been extensively exercised and have been well-documented (see Von Plata I (supra)) and Sun SJ, Weil MH, Tang W, et al. Combined effects of buffer and adrenergic agent on postresuscitation myocardial function. J Pharm Exp Ther. 1999;291 :773-777). Coincident with the start of precordial compression, the animals were mechanically ventilated. Tidal volume was established at 6.5 ml per kg animal weight, a frequency of 100 min^−1, and on a FiO2 of 1.0.

Assay [3] deals with male domestic pigs. Briefly: Example 3: dobutamine vs levosimendan in the porcine model of cardiac arrest and cardiac resuscitation. The format is in vivo, pig. Here is the method: Experimental Preparation: The experiments were performed in the porcine model of cardiac arrest and cardiac resuscitation which has been extensively exercised. (21,22). […] Anesthesia was initiated by intramuscular injection of ketamine (20 mg kg^−1) and was completed by ear vein injection of sodium pentobarbital (30 mg kg^−1). Additional 8 mg kg^−1 doses of sodium pentobarbital were injected to maintain anesthesia at intervals of one hour. A cuffed endotracheal tube was advanced into the trachea. Animals were mechanically ventilated with a volume of 15 mL kg^−1, peak airway flow of 40 L min^−1, and FiO2 of 0.2 with the aid of a volume-controlled ventilator (Model MA-1, Puritan-Bennett, Carlsbad, Calif.). End-tidal PCO2 (PETCO2) was monitored with an infrared analyzer (Model 01R-7101A, Nihon Kohden Corp, Tokyo, Japan). Respiratory frequency was adjusted to maintain PETCO2 between 35 and 40 mmHg. Blood temperature was maintained at 37±0.5° C. with the aid of infrared heating lamps, as required.
For the measurement of left ventricular functions, a 5.5/7.5 MHz biplane with pulse-wave Doppler transesophageal echocardiographic tranducer with 4-way flexure (Model 21363A, Hewlett-Packard Co. Medical Products Group, Andover, Mass.) was advanced from the incisor teeth into the esophagus for a distance of approximately 40 cm. For the measurement of aortic pressure, a fluid filled catheter was advanced from the surgically exposed left femoral artery into the thoracic aorta. For measurements of right atrial and pulmonary arterial pressures, blood temperature and cardiac output, a 7-French, pentalumen, thermodilution-tipped catheter was advanced from the surgically exposed left femoral vein and flow-directed into the pulmonary artery. For inducing VF, a 5-French pacing catheter (EP Techologies, Inc., Mountain View, Calif.) was advanced from the surgically exposed right cephalic vein into the right ventricle. […] This catheter was then looped laterally and advanced inferiorly for a distance of 5 cm into the great cardiac vein for sampling of coronary venous blood. The electrocardiographic (EKG) lead II was continuously recorded.
Experimental procedure: A total 15 animals were investigated. […] Cardiac arrest was induced with 1 to 2 mA AC delivered to the endocardium of the right ventricle. Mechanical ventilation was discontinued after onset of VF. At the end of a 7-minute interval of untreated VF, precordial compression (PC) was started with a pneumatic piston-driven chest compressor (Thumper, Model 1000, Michigan Instruments, Grand Rapids, Mich.). Coincident with the start of PC, the animal was mechanically ventilated with a tidal volume of […] and FiO2 of 1.0. […] The compression force was adjusted to decrease the anterior-posterior diameter of the chest by 25%. After 5 minutes of PC, defibrillation was attempted with a 150 J biphasic waveform shock delivered between the right infraclavicular area and the cardiac apex. If an organized cardiac rhythm with mean aortic pressure of more than 60 mm Hg persisted for an interval of 5 minutes or more, the animal was regarded as successfully resuscitated. At 10 minutes after restoration of spontaneous circulation (ROSC), one of the three interventions was begun. […] Levosimendan diluted in physiological salt solution was administered in a loading dose of 20 μg kg^−1, infused over 10 minutes, followed by infusion of 0.4 μg kg^−1 min^−1 also in physiologic salt solution for a total duration of 230 minutes.

Assay [4] deals with male domestic pigs. Briefly: Levosimendan on post-resuscitation myocardial function after beta-adrenergic blockade (propranolol). The format is in vivo, pig. Here is the method: Anesthesia was initiated by intramuscular injection of ketamine (20 mg/kg) and completed by ear vein injection of sodium pentobarbital (30 mg/kg). Additional doses of sodium pentobarbital (8 mg/kg) were injected to maintain anesthesia at intervals of one hour. A cuffed endotracheal tube was advanced into the trachea. Animals were mechanically ventilated with a volume-controlled ventilator (Model MA-1, Puritan-Bennett, Carlsbad, Calif.) with a tidal volume of 15 mL/kg, peak flow of 40 L/min, and FiO2 of 0.21. End-tidal PCO2 (ETCO2) was monitored with an infrared analyzer (Model 01R-7101A, Nihon Kohden Corp, Tokyo, Japan). Respiratory frequency was adjusted to maintain PETCO2 between 35 and 40 mm Hg.
For the measurement of left ventricular functions, a 5.5/7.5 […] biplane with Doppler transesophageal echocardiographic transducer with 4-way flexure (Model 21363A, Hewlett-Packard Co., Medical Products Group, Andover, Mass.) was advanced from the incisor teeth into the esophagus for a distance of approximately 35 cm. For the measurement of aortic pressure, a fluid-filled catheter was advanced from the left femoral artery into the thoracic aorta. For the measurements of right atrial, pulmonary arterial pressures and blood temperature, a 7-French, pentalumen, thermodilution-tipped catheter was advanced from the left femoral vein and flow-directed into the pulmonary artery. A 7-French catheter was advanced from the left cephalic vein into the great cardiac vein for the measurement of great cardiac vein blood gases and lactate. For inducing VF, a 5-French pacing catheter (EP Technologies, Inc., Mountain View, Calif.) was advanced from the right cephalic vein into the right ventricle.
The investigators were blinded to the randomization. Cardiac arrest was induced with 1 to 2 mA AC delivered to the endocardium of the right ventricle. Mechanical ventilation was discontinued after onset of VF. At the end of the 7-min interval of untreated VF, precordial compression was started with a pneumatic piston-driven chest compressor (Thumper, Model 1000, Michigan Instruments, Grand Rapids, Mich.). […] The compression force was adjusted to decrease the anterior-posterior diameter of the chest by 25%. After 5 min of precordial compression, defibrillation was attempted with a 150 J biphasic waveform shock delivered between the right infraclavicular area and the cardiac apex. If an organized cardiac rhythm with mean aortic pressure of more than 60 mm Hg persisted for an interval of 5 min or more, the animal was regarded as successfully resuscitated. All animals had restoration of spontaneous circulation (ROSC) after electrical defibrillation, and were then randomized to three treatment groups: (1) propranolol (0.1 mg/kg bolus at 6 min of VF); (2) propranolol plus levosimendan (at 10 min after post resuscitation, 20 μg/kg over 10 min followed by 0.4 μg/kg/min for 220 min); and (3) equal volumes of saline as placebo.
Measurements were obtained over an interval of 4 hours following resuscitation. After 4 hours, animals were euthanized by intravenous injection of 150 mg kg^−1 pentobarbital. Autopsy was performed to document injuries to the bony thorax and the thoracic and abdominal viscera.

[5] abbreviates: compared to saline placebo / control (FIG. 27).

In the case of `CC(CCc1ccc(O)cc1)NCCc1ccc(O)c(O)c1` (centres unmarked) [Dobutamine], the arterial pressures result in the assay on Male Sprague-Dawley rats [1] (among the three groups, at PR10 and after administration of the drugs (FIG. 4)) is “No significant differences”. Further, the heart rate entry was “increases in heart rate of borderline significance” with Male Sprague-Dawley rats [1] (post-resuscitation (FIG. 5)); “moderate increase in heart rate” with Male Sprague-Dawley rats [2] (after administration, post-resuscitation); “did not differ” with male domestic pigs [3] (among the three groups). For the same compound, the figures for the cardiac index result in the assay with Male Sprague-Dawley rats [1] (post-resuscitation (FIG. 6)) and in the assay with Male Sprague-Dawley rats [2] (post-resuscitation (FIG. 13)) were “comparable increases in cardiac index” and “significant increases in cardiac index”, respectively. Besides, the “lusitropic (relaxation) effect” value in the assay on Male Sprague-Dawley rats [1] (post-resuscitation (FIG. 10)) is reported as “more profound lusitropic (relaxation) effect”. Further, in the assay on Male Sprague-Dawley rats [1] (post-resuscitation, initially (FIG. 7)), the stroke volume result is recorded as “significantly greater stroke volumes”. In addition, the “mean arterial pressure (MAP)” value with Male Sprague-Dawley rats [2] (between the three groups) is given as “no significant differences”. In the assay with Male Sprague-Dawley rats [2] (observed over 72 hours, least with saline placebo (FIG. 15)), the duration of survival result was “intermediate”. Further, the dP/dt40 result with Male Sprague-Dawley rats [2] (vs saline placebo (FIG. 14)) was “Significantly greater”. Besides, in the assay with Male Sprague-Dawley rats [2] (vs saline placebo (FIG. 14)), the “−dP/dt” value is “Significantly greater”. The arterial pressure entry in the assay with male domestic pigs [3] (between levosimendan and dobutamine) was “no differences in arterial pressure”. Also, the cardiac output result in the assay with male domestic pigs [3] (vs saline placebo (FIG. 16)) is recorded as “Significantly greater cardiac output”.

Consider `CC(C)NCC(O)COc1cccc2ccccc12` (centres unmarked) [propranolol], for which, in the assay with male domestic pigs [4] (5 min after resuscitation (FIG. 26)), the “postresuscitation ST segment elevation in ECG limb lead 2” value is given as “lesser; also recorded: significantly improved”. Moreover, the “number of postresuscitation premature ventricular beats” value in the assay with male domestic pigs [4] (5 min interval after ROSC (FIG. 26)) is listed as “significantly lesser number; also recorded: significantly improved”. Also, in the assay with male domestic pigs [4] (setting [5]), the FAC result is on record as “significantly increased; also recorded: significantly greater” and the “Postresuscitation ejection fractions (EF)” value is given as “significantly increased; also recorded: significantly greater”. Also, the “total energies of electrical shocks” value in the assay on male domestic pigs [4] (propranolol 0.1 mg/kg bolus at 6 min of VF) is on record as “significantly lesser total energies”. Moreover, in the assay with male domestic pigs [4] (propranolol 0.1 mg/kg bolus at 6 min of VF (FIG. 26)), the “number of electrical shocks” value is listed as “significantly smaller number; also recorded: significantly improved”.
